In patent publication US11439611B2, “Administration of serine protease inhibitors to the stomach” (LEADING BIOSCIENCES, INC., priority 2010, dated 2022):

Tests used:
Assay type in all cases: in vivo
[1] = Case study: human patient with Fournier's gangrene, septic shock and multiple organ failure, treated with gabexate mesilate
Method: For example, as reported in a case study from the Cheng-Hsin General Hospital (that was approved by Human Ethics Committee and written consent by the patient), a heart transplant patient was regularly followed-up in the clinic with cyclosporine, mycophenolate, and prednisolone therapy for four years. The cyclosporine level was kept around 150, […] without evidence of rejection or infection during this period of follow-up. […] The wound was self-managed by the patient and deteriorated after one week. They were hospitalized and immediately admitted to the intensive care unit. At presentation, blood pressure was 80/40 mmHg in spite of aggressive fluid management with 2 liters of crystalloid and colloid fluid over 5 hours and vasopressor therapy with dopamine […]. […] They were intubated and received broad-spectrum antibiotics, including teichomycin, meropenem, and caspofungin. […] The diagnosis was Fournier's gangrene complicated with septic shock and multiple organ failure. Due to persistent septic shock and worsening septic markers, the patient received in addition a diverting colectomy and intravenous total parental nutrition. Furthermore, the patient also received a second wide debridement. The wound culture was positive with multiple drug resistance Pseudomonas aeruginosa and Bacteroides thetaiotaomicron.
Intravenous gabexate mesilate was given for severe septic shock and elevated amylase and lipase values (as markers for presence of pancreatic enzymes) at a dose of 3000 mg/day. At the same time, the patient stopped all enteral feeding and total parental nutrition was given with positive fluid balance of more than 1 liter per day.
Treatment was then switched to enteral gabexate mesilate infusion by continuous feeding into the stomach via nasogastric tube at a dose of 3000 mg/day in 2000 ml of normal saline. […] On the third day, the dose of gabexate mesilate was reduced to 300 mg/day in a fluid volume of 2000 ml and kept at this level for 10 days before discharge of the patient from the intensive care unit. […] Three days after enteral gabexate mesilate treatment they were extubated. On day 13, the immunosuppressant medication was restored with reduced dosage compared to the time before hospitalization and they were discharged from the ward after one month of admission. Five months after discharge at the time of this report writing the patient was alive.

digestive enzymes = assay: Shock treatment in rats with an enteral protease inhibitor to block digestive enzymes
Method: With respect to suitable quantities of one or more protease inhibitors, the inventors observed in various animal models that shock treatment using protease inhibitors to block digestive enzymes requires for at least some protease inhibitors a minimum effective dosage that is substantially above the dosage contemplated in the '283 patent. For example, using tranexamic acid in rats, the minimum effective dose was 100 mg/kg (127 mM in the enteral solution with 17 ml to a 350 gm rat). Here, tranexamic acid was given to rats in 18 cc of fluid. The equivalent concentration in 2 liters (deemed suitable as human dose) is 3.2 grams. The maximum dose tested in rats was 1125 mg/kg, which is equivalent to 36 grams for a human dose in 2 liters of fluid to be administered into the lumen of the stomach or intestine.

[2] = Rat model of severe ischemic intestine with enteral oxygen carrier; conditions: 30 min ischemia, 17 ml solution for a 230 g rat, saturated for 10 min in oxygen
Method: More specifically, the feasibility was illustrated in a model with 30 min ischemia with perfluorodecalin solution 17 ml for 230 g rat) previously saturated for 10 min in oxygen. Thus, it should be noted that gastric, duodenal, jejunal, and ileal irrigation (or otherwise exposure) may be used as a stand-alone or supplemental treatment in human and other mammals. Most typically, the volume of the oxygen carrier will be adjusted such as to allow intimate contact with the oxygen carrier throughout the stomach, duodenum, jejunum, and/or ileum.

[3] = enteral via nasogastric tube, 3000 mg/day, within two days

[Ethyl p-(6-guanidinohexanoyloxy) benzoate] methanesulfonate [gabexate mesilate]
effectiveness of a single dose/day given via NG tube in human ([1]; 2 to 4 grams in 1 to 2 liter solution with GOLYTELY (PEG) or saline, over multiple days (up to 14)): very effective | blood pressure ([1]; continuous feeding into the stomach via nasogastric tube, 3000 mg/day in 2000 ml normal saline, within two days, minimal dose of dopamine): stabilized | amylase, lipase and white blood cell (WBC) count ([1]; enteral via nasogastric tube, 3000 mg/day, then 300 mg/day from the third day for 10 days, FIG. 1A): reduced to control values | glucose level [1, 3]: could be controlled by reduced dose of subcutaneous insulin | patient's level of conscience [1, 3]: increased | x-ray of the abdomen (ileus) ([1]; enteral via nasogastric tube, day 16 vs day 1, FIG. 1C): improved ileus | survival ([1]; five months after discharge): alive | plasma amylase and lipase values ([1]; intravenous, 3000 mg/day, over the next 12 hours, enteral feeding stopped, total parenteral nutrition): did not reduce | extubation ([1]; three days after enteral treatment): extubated

NC[C@H]1CC[C@H](C(=O)O)CC1 [tranexamic acid]
minimum effective dose, as concentration in the enteral solution (digestive enzymes; 17 ml to a 350 gm rat): 127 mM | equivalent of the minimum effective rat dose in 2 liters (human dose) (digestive enzymes; extrapolated from rat to a human dose in 2 liters): 3.2 grams | minimum effective dose (digestive enzymes; rats, enteral, given in 17-18 ml of fluid to a 350 gm rat): 100 mg/kg

FC1(F)C(F)(F)C(F)(F)C2(F)C(F)(F)C(F)(F)C(F)(F)C(F)(F)C2(F)C1(F)F (stereo not shown) [perfluorodecalin, Perfluorodecalin]
intestinal damage / entry of digestive enzymes into the wall of the intestine [2]: minimize intestinal damage
